Assay results published in article PMC12655351, “Synthesis and Anticancer Activity Evaluation of New 5-((5-Nitrofuran-2-yl)allylidene)-2-thioxo-4-thiazolidinones” (Pharmaceuticals, 2025).
Structures can show the parent of a compound that is named as a salt. Where two headings read alike, the source gives them in different places.

Assays:
[1] = test system: AGS; assay: MTT assay; type: cell-based; conditions: Homo sapiens, 24 h of treatment
Procedure: (§1) The NCI-60 screening protocol utilizes the sulforhodamine B (SRB) assay following 48 h of compound exposure. […] The MTT assay was performed on eleven cancer cell lines: human breast cancer (MDA-MB-231, MCF-7, HCC 1954), human gastric cancer (AGS), human colorectal adenocarcinoma (HT-29, DLD-1, HCT 116), human neuroblastoma (SH SY5Y), and human leukemia (JURKAT, RMPI 8866, K-562) cell lines. The study was conducted in triplicate at the following seven concentrations: 0.62, 1.25, 2.5, 5, 10, 20, and 40 μM.
(§2) The selected cell lines were seeded into 96-well plates and cultured in accordance with the previously described methodology. Then, the cells were treated with all tested compounds and DOX at concentrations of 0.625, 1.25, 2.5, 5.0, 10.0, 20.0, and 40.0 μM for 24 h. A solution of 3-(4,5-dimethyl-2-thiazolyl)-2,5-diphenyl-2H-tetrazolium bromide (Sigma-Aldrich, St. Louis, MO, USA) in phosphate-buffered saline without calcium and magnesium (Corning, Kennebunk, ME, USA) at a concentration of 5 mg/mL was used to carry out MTT assay. After incubation, 20 μL of the prepared MTT solution was added, and then the cells were incubated at 37 °C for two hours. Afterwards, the cells were lysed using 100 μL of lysing buffer (comprising 25 mM HCl, 2% acetic acid, 3% DMF, and 5% SDS, with a pH of 4.7). The absorbance was determined at a wavelength of 570 nm using an Absorbance 96 microplate reader (Byonoy GmbH, Hamburg, Germany).

[2] = test system: DLD-1; assay: MTT assay; type: cell-based; conditions: Homo sapiens; DLD-1, 24 h of treatment
Procedure: as §1, §2

[3] = test system: HCC-1954; assay: MTT assay; type: cell-based; conditions: Homo sapiens, HCC1954; HCC-1954, 24 h of treatment
Procedure: as §1, §2

[4] = test system: HCT-116; assay: MTT assay; type: cell-based; conditions: Homo sapiens; HCT-116, 24 h of treatment
Procedure: as §1, §2

[5] = test system: HT-29; assay: MTT assay; type: cell-based; conditions: Homo sapiens; HT-29, 24 h of treatment
Procedure: as §1, §2

[6] = test system: Jurkat; assay: MTT assay; type: cell-based; conditions: Homo sapiens, 24 h of treatment
Procedure: as §1, §2

[7] = test system: K562; assay: MTT assay; type: cell-based; conditions: Homo sapiens; K562, 24 h of treatment
Procedure: as §1, §2

[8] = test system: MCF-7; assay: MTT assay; type: cell-based; conditions: Homo sapiens, MCF7; MCF-7, 24 h of treatment
Procedure: as §1, §2

[9] = test system: MDA-MB-231; assay: MTT assay; type: cell-based; conditions: Homo sapiens; MDA-MB-231, 24 h of treatment
Procedure: as §1, §2

[10] = test system: RPMI 8866; assay: MTT assay; type: cell-based; conditions: Homo sapiens; RPMI 8866, 24 h of treatment
Procedure: as §1, §2

[11] = test system: SH SY5Y; assay: MTT assay; type: cell-based; conditions: Homo sapiens, 24 h of treatment
Procedure: as §1, §2

[12] = test system: MCF-7; assay: [3H]-thymidine incorporation assay; type: cell-based; conditions: Homo sapiens, MCF7; MCF-7, 24 h of treatment
Procedure: (§3) Another method of assessing the cytotoxic effects of tested compounds, [^3H]-thymidine incorporation assay, was applied. This method provided the capability to analyze the antiproliferative activity of novel structures on MCF-7 and MDA-MB-231 through their ability to incorporate thymidine into the cells. The acquired results further confirmed the potent activity of the 14b compound as the most prominent structure among the novel compounds (Table 2). The test was carried out in triplicate at concentrations of 5, 15, and 30 μM for the MDA-MB-231 cell line and 1, 5, and 10 μM for the MCF-7 cell line.
(§4) Following the selection of cell lines for further study, the effects of all compounds on cell proliferation were evaluated on MCF-7 and MDA-MB-231 cell lines. Cells were seeded in 24-well plates and cultured as described above. Cells were treated with the compounds at concentrations 1, 5, and 10 μM, and 5, 15, and 30 μM for MCF-7 and MDA-MB-231 cell lines, respectively, for 24 h. Subsequently, 0.5 μCi [^3H]-thymidine was added for 4 h at 37 °C. Then, plates with cells were placed on the ice, the liquid was aspirated, and cells were washed twice with 1mL of 0.05 M Tris-HCl buffer comprising 0.11 M NaCl and precipitated by adding 1 mL per well of 5% trichloroacetic. After precipitation, the cells were dissolved with 1 mL of 0.1 M NaOH with 1% SDS (Sigma-Aldrich, St. Louis, MO, USA) at room temperature (RT). The cell lysates were transferred into scintillation vials containing 2 mL of scintillation fluid (Ultima Gold™ XR, PerkinElmer, MA, USA), and cell-associated radioactivity was measured using a Scintillation Counter 1900 TR, TRI-CARB (Packard, Perkin Elmer, Inc., San Jose, CA, USA). The [^3H]-thymidine uptake was expressed as a percentage of the control value.

[13] = test system: MDA-MB-231; assay: [3H]-thymidine incorporation assay; type: cell-based; conditions: Homo sapiens; MDA-MB-231, 24 h of treatment
Procedure: as §3, §4

[14] = test system: reactive oxygen species in MCF-7 cells; assay: H2DCFDA and DAPI double staining; type: cell-based, human; conditions: MCF-7, 1 and 5 μM, one hour
Procedure: (§5) The double staining method was applied to analyze novel compounds’ effects on the generation of reactive oxygen species. The first dye, H2DCFDA, after conversion to DCF, serves as an indicator of oxidative stress (green fluorescence), while the second one, known as DAPI, was applied to showcase nuclear genetic material of MCF-7 and MDA-MB-231 breast cancer cells (blue fluorescence). The concentrations of compounds were 1 and 5 μM for the MCF-7 cell line and 5 and 10 μM for the MDA-MB-231 cell line. The incubation time after treatment was one hour in both cell lines.
(§6) The influences of 2b, 12b, 14b, and doxorubicin (1 and 5 µM and 5 and 10 µM for MCF-7 and MDA-MB-231 cell lines, respectively) on the generation of reactive oxygen species (ROS) were analyzed. Cells were seeded in 6-well culture plates at 1 × 10^5 cells per well in 1 mL of medium and then treated with compounds for 1 h and then washed with PBS. Double staining was conducted with 20 µM 2′,7′-dichlorodihydrofluorescein diacetate (H2DCFDA) reagent (Thermo Fisher Scientific, Eugene, OR, USA), which is colorless, and is cleaved by intracellular esterases and oxidized to the highly fluorescent 2′,7′-dichlorofluorescein (DCF), and 10 µg/mL of the fluorescent dye 4′,6-diamidino-2-phenylindole (DAPI) (Sigma-Aldrich, St. Louis, MO, USA), which visualizes the nuclear DNA of cells. A Nikon ECLIPSE Ti fluorescence microscope (Nikon, Tokyo, Japan) was used to obtain results which were analyzed using ImageJ software 1.54k (Bethesda, MD, USA). The fluorescence intensity of the DCF reagent was evaluated relative to the control. The number of analyzed cells was above 100.

[15] = test system: reactive oxygen species in MDA-MB-231 cells; assay: H2DCFDA and DAPI double staining; type: cell-based, human; conditions: MDA-MB-231, 5 and 10 μM, one hour
Procedure: as §5, §6

[16] = test system: MCF-7; conditions: cited from earlier work
[17] = test system: MDA-MB-231; conditions: cited from earlier work

| Compound | IC50 [1] | IC50 [2] | IC50 [3] | IC50 [4] | IC50 [5] | IC50 [6] | IC50 [7] | IC50 [8] | IC50 [9] | IC50 [10] | IC50 [11] | IC50 [12] | IC50 [13] | generation of reactive oxygen species [14] | generation of reactive oxygen species [15] | IC50 ([16]; MCF-7 ref 39, read-out: concentration required to inhibit more than 50%) | IC50 ([17]; MDA-MB-231 ref 39, read-out: concentration required to inhibit more than 50%) | IC50 ([16]; MCF-7 ref 4, read-out: IC50) | IC50 ([17]; MDA-MB-231 ref 4, read-out: IC50) |
| --- | --- | --- | --- | --- | --- | --- | --- | --- | --- | --- | --- | --- | --- | --- | --- | --- | --- | --- | --- |
| O=C(O)CN1C(=O)/C(=C/C=C/c2ccc([N+](=O)[O-])o2)SC1=S [1b, 2-((Z)-5-((E)-3-(5-Nitrofuran-2-yl)allylidene)-4-oxo-2-thioxothiazolidin-3-yl)acetic acid] | 36.2 µM | 28.8 µM | 25.3 µM | > 40 µM | 22.3 µM | 1.76 µM | > 40 µM | > 40 µM | > 40 µM | > 40 µM | > 40 µM | > 10 µM | > 30 µM | – | – | – | – | – | – |
| CCC(C(=O)O)N1C(=O)/C(=C/C=C/c2ccc([N+](=O)[O-])o2)SC1=S (centres unmarked) [3b, 2-((Z)-5-((E)-3-(5-Nitrofuran-2-yl)allylidene)-4-oxo-2-thioxothiazolidin-3-yl)butanoic acid] | 6.53 µM | 8.03 µM | 17.6 µM | 14.7 µM | 30.4 µM | 14.2 µM | 25.8 µM | 7.74 µM | 18.5 µM | 35.2 µM | 28.5 µM | 7.79 µM | 2.65 µM | – | – | – | – | – | – |
| CC(C)CC(C(=O)O)N1C(=O)/C(=C/C=C/c2ccc([N+](=O)[O-])o2)SC1=S (centres unmarked) [7b, 4-Methyl-2-((Z)-5-((E)-3-(5-nitrofuran-2-yl)allylidene)-4-oxo-2-thioxothiazolidin-3-yl)pentanoic acid] | 5.55 µM | 7.67 µM | 6.28 µM | 7.98 µM | 13.6 µM | 7.72 µM | 18.5 µM | 7.13 µM | 16.7 µM | 16.8 µM | 15.6 µM | 6.69 µM | 2.19 µM | – | – | – | – | – | – |
| CCC(C)C(C(=O)O)N1C(=O)/C(=C/C=C/c2ccc([N+](=O)[O-])o2)SC1=S (centres unmarked) [8b, 3-Methyl-2-((Z)-5-((E)-3-(5-nitrofuran-2-yl)allylidene)-4-oxo-2-thioxothiazolidin-3-yl)pentanoic acid] | 3.38 µM | 3.68 µM | 4.9 µM | 4.15 µM | 8.04 µM | 3.19 µM | 7.35 µM | 2.38 µM | 8.34 µM | 14.2 µM | 6.6 µM | 2.21 µM | 1.84 µM | – | – | – | – | – | – |
| O=C(O)C(Cc1ccccc1)N1C(=O)/C(=C/C=C/c2ccc([N+](=O)[O-])o2)SC1=S (centres unmarked) [10b, 2-((Z)-5-((E)-3-(5-Nitrofuran-2-yl)allylidene)-4-oxo-2-thioxothiazolidin-3-yl)-3-phenylpropanoic acid] | 8.57 µM | 9.29 µM | 19.1 µM | 13.5 µM | 28.6 µM | 6.7 µM | 25.5 µM | 9.23 µM | 22.9 µM | 16.5 µM | 18.9 µM | 7.87 µM | 5.99 µM | – | – | – | – | – | – |
| O=C(O)C(Cc1ccc(O)cc1)N1C(=O)/C(=C/C=C/c2ccc([N+](=O)[O-])o2)SC1=S (centres unmarked) [11b, 3-(4-Hydroxyphenyl)-2-((Z)-5-((E)-3-(5-nitrofuran-2-yl)allylidene)-4-oxo-2-thioxothiazolidin-3-yl)propanoic acid] | 30.6 µM | 20.3 µM | > 40 µM | 36.1 µM | > 40 µM | 17.1 µM | > 40 µM | 33.1 µM | > 40 µM | 27.8 µM | > 40 µM | > 10 µM | > 30 µM | – | – | – | – | – | – |
| O=C(O)CCCCCCCCCCN1C(=O)/C(=C/C=C/c2ccc([N+](=O)[O-])o2)SC1=S [15b, 11-((Z)-5-((E)-3-(5-nitrofuran-2-yl)allylidene)-4-oxo-2-thioxothiazolidin-3-yl)undecanoic acid] | 1.71 µM | 1.76 µM | 6.23 µM | 10.5 µM | 9.61 µM | 1.41 µM | 15.5 µM | 4.05 µM | > 40 µM | 11 µM | 3.76 µM | 3.13 µM | > 30 µM | – | – | – | – | – | – |
| COc1cccc2c1C(=O)c1c(O)c3c(c(O)c1C2=O)C[C@@](O)(C(=O)CO)C[C@@H]3O[C@H]1C[C@H](N)[C@H](O)[C@H](C)O1 [DOX, Doxorubicin hydrochloride, reference compound] | 1.09 µM | 2.83 µM | 3.14 µM | 16.8 µM | 0.73 µM | 0.72 µM | 0.43 µM | 0.73 µM | 7.53 µM | 0.38 µM | 39.9 µM | 1.78 µM | 0.36 µM | fewer effects on reactive oxygen species generation | fewer effects on reactive oxygen species generation | – | – | – | – |
| N.N.[Cl][Pt][Cl] [cisplatin] | – | – | – | – | – | – | – | – | – | – | – | – | – | – | – | ~80 µM | ~80 µM | – | – |
| CC(C)C(C(=O)O)N1C(=O)/C(=C/C(Cl)=C/c2ccc([N+](=O)[O-])cc2)SC1=S (centres unmarked) [substructure B, 2-{5-[(Z,2Z)-2-Chloro-3-(4-nitrophenyl)-2-propenylidene]-4-oxo-2-thioxothiazolidin-3-yl}-3-methylbutanoic Acid] | – | – | – | – | – | – | – | – | – | – | – | – | – | – | – | – | – | 5.02 µM | 15.2 µM |
